From patent EP4733400A1, “ANTISENSE OLIGONUCLEOTIDE TARGETING HIC-5” (SHOWA Medical University, priority 2023, dated 2025)
{TEG-Chol} = cholesterol attached via TEG linker; l = locked nucleic acid (LNA); {Toco} = tocopherol conjugate; d = 2'-deoxy (DNA)

System: Hic-5
Test: Condition 8: Hic-5 expression by RT-PCR, human HSCs, ASO 5 µM without transfection reagent, 72 hours
Format: cell-based
Conditions: ratio, mean±SEM

Substance	Expression Inhibition Rate (4) Condition 8 (n=2)
H26_cho: modified at the 5' end of H26 with TEG-cholesterol; GCTCGTGGAAACCCTC; LNA 1-3,14-16; SEQ ID NO 458 (sugars from the 5' end l3 d10 l3, 5' {TEG-Chol}, backbone and methylation of C not given here)	0.161±0.110
H26_toco: modified at the 5' end of H26 with tocopherol; GCTCGTGGAAACCCTC; LNA 1-3,14-16; SEQ ID NO 459 (sugars from the 5' end l3 d10 l3, 5' {Toco}, backbone and methylation of C not given here)	0.738±0.010
